For one data set, the system named is α-glucosidase. Also noted: method as in PMID 25044593. The conditions noted are these: cited from earlier work.
Data set [1] addresses T1, α-glucosidase from Saccharomyes cerevisiae (Saccharomyces cerevisiae, UniProt P53341).
T1 construct: purchased Sigma-Aldrich (St. Louis, MO, USA)
Description: α-glucosidase inhibitory assay (PNPG substrate). Type of data set: biochemical. Conditions: for inhibition at 667 µM: compound at 667 μM; for IC50: tested between 0.2 and 2 mM, three replicates. How it is done:
The α-glucosidase inhibitory effect was performed as follows. The 0.2 U of α-glucosidase from Saccharomyes cerevisiae, purchased from Sigma-Aldrich (St. Louis, MO, USA), was diluted to 0.067 M phosphate buffer consisting of Na2HPO4·12H2O and KH2PO4 (pH 6.8). The assay was conducted in a 60 μL reaction system containing 20 μL of diluted enzyme solution and 20 μL of DMSO or sample (dissolved in DMSO). After 10 min of incubation in the 96-well plates at 37 °C, 20 μL of 4 mM PNPG (4-nitrophenyl-α-D-glucopyranoside, Aladdin, Shanghai, China) was added as substrate to start the enzymatic reaction. The plate was incubated for an additional 20 min at 37 °C, and the reaction was quenched by adding 60 μL of 0.2 M Na2CO3. The final concentrations of tested compounds were between 0.2 and 2 mM. The optical density (OD) was measured at an absorbance wavelength of 405 nm using a Microplate Reader (Tecan, Switzerland). […] Percent inhibition was calculated by the following equation: Inhibition (%) = ((Absorbance of control − Absorbance of test)/Absorbance of control)); IC50 concentrations are calculated using concentration vs. percent inhibition values.

Data set [2] in a line: DPPH radical scavenging (antioxidant) test. Conditions: for Antioxidant % Inhibition (1000 μM): compound at 1000 μM. How it is done: The DPPH scavenging was assayed following the procedures in our recent published paper. The DPPH radical scavenging test was performed in 96-well microplates. Then, 20 μL of samples at a concentration of 10 mM in MeOH were added to 180 μL (150 μmol/L) DPPH solution. After 30 min of light avoidance, absorbance at 517 nm using a Microplate Reader (Tecan, Switzerland) was measured and the percentage of activity was calculated. All assays were performed in three replicates, and vitamin C was used as a positive control. Percent inhibition was calculated by the following equation: Inhibition (%) = ((Absorbance of control − Absorbance of test)/Absorbance of control)); IC50 concentrations are calculated using concentration vs. percent inhibition values.
(Loss of DPPH colour is used to gauge radical scavenging.)

The subject of data set [3] is several carcinoma cell lines. The conditions noted are these: cited from earlier work.
Another data set addresses liver X receptor α. Also noted: method as in PMID 33932772. Conditions: read-out: dissociation equilibrium constant; cited from earlier work.

T1 sequence (P53341 whole entry): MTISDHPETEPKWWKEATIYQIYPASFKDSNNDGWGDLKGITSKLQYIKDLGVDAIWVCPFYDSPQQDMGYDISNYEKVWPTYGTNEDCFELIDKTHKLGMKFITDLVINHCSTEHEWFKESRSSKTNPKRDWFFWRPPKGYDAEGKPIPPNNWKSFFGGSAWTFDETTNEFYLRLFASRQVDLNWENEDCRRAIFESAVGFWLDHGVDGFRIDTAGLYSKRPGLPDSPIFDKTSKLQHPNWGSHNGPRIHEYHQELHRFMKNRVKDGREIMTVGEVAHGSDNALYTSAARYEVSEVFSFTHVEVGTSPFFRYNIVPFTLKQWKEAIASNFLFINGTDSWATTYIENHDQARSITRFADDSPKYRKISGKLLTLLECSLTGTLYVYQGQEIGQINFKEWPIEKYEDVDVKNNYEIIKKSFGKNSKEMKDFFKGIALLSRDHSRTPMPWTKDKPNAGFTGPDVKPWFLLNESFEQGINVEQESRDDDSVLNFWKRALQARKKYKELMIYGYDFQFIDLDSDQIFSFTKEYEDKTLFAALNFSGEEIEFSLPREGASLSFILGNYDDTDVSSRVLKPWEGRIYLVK

Consider `COc1cc(OC)c2c(=O)cc(CCCC(=O)O)oc2c1` [4-(5,7-dimethoxy-4-oxo-4H-chromen-2-yl)butanoic acid], for which the “inhibitory activity on α-glucosidase (in words)” value in the data set with α-glucosidase is on record as “moderate inhibitory activity”.

As to `C[C@H]1O[C@H](O[C@H]2[C@H](O)[C@@H](O)[C@@H](O[C@H]3[C@H](O)[C@@H](O)C(O)O[C@@H]3CO)O[C@@H]2CO)[C@H](O)[C@@H](O)[C@@H]1N[C@H]1C=C(CO)[C@@H](O)[C@H](O)[C@H]1O` (some centres unmarked) [Acarbose, acarbose, reference compound], the inhibition at 667 µM in data set [1] worked out at 27.7%.

Regarding `COc1cc(O)c2c(=O)cc(CCC[C@@H]3CCC(=O)O3)oc2c1` [Compound 1, Penithochromone M], in data set [1], the inhibition at 667 µM was -3.43%. Besides, the “Antioxidant % Inhibition (1000 μM)” value in data set [2] stood at 7.24%.

For `O=C(O)CCCCC(O)Cc1cc(=O)c2c(O)cc(O)cc2o1` (centres unmarked) [Compound 2, Penithochromone N], the inhibition at 667 µM in data set [1] was found to be 15.1%. Also, in data set [2], the midpoint of inhibition, the IC50, lay at 1970 ± 156 µM and the “Antioxidant % Inhibition (1000 μM)” value is on record as 35.7%.

For the compound `COC(=O)CCCCC(O)Cc1cc(=O)c2c(O)cc(OC)cc2o1` (centres unmarked) [Compound 3, Penithochromone O], the inhibition at 667 µM in data set [1] came out at 23.8%. Also, the “Antioxidant % Inhibition (1000 μM)” value in data set [2] was 20.4%.

As for `COc1cc(OC)c2c(=O)cc(CCCCC(O)CC(=O)O)oc2c1` (centres unmarked) [Compound 4, Penithochromone P], in data set [1], the inhibition at 667 µM was -9.72%. Moreover, the “Antioxidant % Inhibition (1000 μM)” value in data set [2] came out at 12.2%.

As to `COC(=O)CC(O)CCCCc1cc(=O)c2c(OC)cc(OC)cc2o1` (centres unmarked) [Compound 5, Penithochromone Q], the inhibition at 667 µM in data set [1] is 1.41%. Also, the “Antioxidant % Inhibition (1000 μM)” value in data set [2] is 11.2%.

Turning to `O=C(O)CC(O)CCCCc1cc(=O)c2c(O)cc(O)cc2o1` (centres unmarked) [Compound 6, Penithochromone R], in data set [1], the inhibition at 667 µM stood at 27.3% and half-maximal inhibition (IC50) was put at 842 ± 11 µM. Also, the “Antioxidant % Inhibition (1000 μM)” value in data set [2] turned out to be 33.8%.

Consider `COc1cc(O)c2c(=O)cc(CC(O)CCCCCCC(=O)O)oc2c1` (centres unmarked) [Compound 7, Penithochromone S], for which, in data set [1], the inhibition at 667 µM is 25.2% and the IC50 is 917 ± 8 µM. Also, the “Antioxidant % Inhibition (1000 μM)” value in data set [2] was found to be 23.6%.

Regarding `COc1cc(O)c2c(=O)cc(CC(O)CCCC/C=C/C(=O)O)oc2c1` (centres unmarked) [Compound 8, Penithochromone T], in data set [1], the inhibition at 667 µM amounted to 41.7% and half-maximal inhibition (IC50) required 1020 ± 22 µM. Further, the “Antioxidant % Inhibition (1000 μM)” value in data set [2] was 19.3%.

For `COc1cc(O)c2c(=O)cc(CCCCCCC(=O)O)oc2c1` [Compound 9, penithochromone C], in data set [1], the inhibition at 667 µM amounted to 40.2% and the IC50 is 688 ± 24 µM. Also, the “Antioxidant % Inhibition (1000 μM)” value in data set [2] is given as 18.1%.

Take `O=C(O)CCCCCCc1cc(=O)c2c(O)cc(O)cc2o1` [Compound 10, penithochromone A]: in data set [1], the inhibition at 667 µM turned out to be 74.7% and the IC50 was 268 ± 25 µM. The “Antioxidant % Inhibition (1000 μM)” value in data set [2] is reported as 21.8%.

For the compound `O=C1O[C@H]([C@@H](O)CO)C(O)=C1O` [Vitamin C, vitamin C, reference compound], in data set [2], 26.7 µM corresponded to half-maximal inhibition (IC50) and the “Antioxidant % Inhibition (1000 μM)” value is 96.4%.

Take `COC(=O)[C@H](O)C[C@](O)(C(=O)OC)[C@@H]1Cc2c(oc3cc(C)cc(O)c3c2=O)S1` [oxalicumone A, oxalicumones A]: the half-inhibitory concentration (IC50) in data set [3] is less than 10 µM.

On to `COC(=O)[C@H](O)C[C@](O)(C(=O)OC)[C@H]1Cc2c(oc3cc(C)cc(O)c3c2=O)S1` [oxalicumone B, oxalicumones B], for which, in data set [3], the IC50 was less than 10 µM.

Consider `COC(=O)C(O)(C[C@@H](O)C(=O)O)[C@@H]1Cc2c(oc3cc(C)cc(O)c3c2=O)S1` (some centres unmarked) [oxalicumone D, oxalicumones D], for which the IC50 in data set [3] is less than 10 µM.

With `COC(=O)CC(O)(C(=O)OC)[C@@H]1Cc2c(oc3cc(C)cc(O)c3c2=O)S1` (some centres unmarked) [oxalicumone E, oxalicumones E], the IC50 in data set [3] is less than 10 µM.

As for Pestalotiochromone A, the Kd at liver X receptor α is 6.2 µM.

The inhibition is the relative decrease from the control value, in per cent. What is called IC50 is the point on the concentration scale where inhibition reaches its midpoint.

Source of the values: paper PMC8434415, “Chromone Derivatives with α-Glucosidase Inhibitory Activity from the Marine Fungus Penicillium thomii Maire” (Molecules, 2021).
